Measurements as given in the supplement of paper PMC10307832.

Tests used:
Assay in all cases: relative viability (nuclei count vs DMSO), 5 days (fraction); higher = more cells survive
[1] = compound: COc1cc(Nc2ncc(F)c(Nc3ccc4c(n3)NC(=O)C(C)(C)O4)n2)cc(OC)c1OC [R406] + CCNC(=O)c1noc(-c2cc(C(C)C)c(O)cc2O)c1-c1ccc(CN2CCOCC2)cc1 [Luminespib] (partner 0.01 µM)
Method in brief: (§1)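 Lung cancer cell lines in 1536-well plates got either a single drug or a fixed anchor-drug dose together with five library-drug doses (not always all listed) in √10 steps, by pin tool, on the day after seeding. Nuclei were counted after 5 days, and relative viability is the treated-to-vehicle ratio of nuclei counts. Values are medians of duplicate plates.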

[2] = compound: COc1cc(Nc2ncc(F)c(Nc3ccc4c(n3)NC(=O)C(C)(C)O4)n2)cc(OC)c1OC [R406] + CS(=O)(=O)N1CCN(Cc2cc3nc(-c4cccc5[nH]ncc45)nc(N4CCOCC4)c3s2)CC1 [Pictilisib] (partner 1 µM)
Method in brief: as §1

[3] = compound: O=C(/C=C/c1cccnc1)NCCCCC1CCN(C(=O)c2ccccc2)CC1 [Daporinad] + NC(=O)Nc1cc(-c2cccc(F)c2)sc1C(=O)N[C@H]1CCCNC1 [AZD7762] (partner 0.2 µM)
Method in brief: as §1

[4] = compound: O=C(/C=C/c1cccnc1)NCCCCC1CCN(C(=O)c2ccccc2)CC1 [Daporinad] + COc1cccc2cc(-c3nc([C@H]4CC[C@H](C(=O)O)CC4)n4ncnc(N)c34)[nH]c12 [OSI-027] (partner 0.5 µM)
Method in brief: as §1

Cell Line	relative viability ([1]; first compound 0.08 µM)	relative viability ([1]; first compound 0.253 µM)	relative viability ([1]; first compound 0.8 µM)	relative viability ([1]; first compound 2.53 µM)	relative viability ([1]; first compound 8 µM)	relative viability ([2]; first compound 0.08 µM)	relative viability ([2]; first compound 0.253 µM)	relative viability ([2]; first compound 0.8 µM)	relative viability ([2]; first compound 2.53 µM)	relative viability ([2]; first compound 8 µM)	relative viability ([3]; first compound 0.0005 µM)	relative viability ([3]; first compound 0.001581 µM)	relative viability ([3]; first compound 0.005 µM)	relative viability ([3]; first compound 0.01581 µM)	relative viability ([4]; first compound 0.0005 µM)	relative viability ([4]; first compound 0.001581 µM)	relative viability ([4]; first compound 0.005 µM)	relative viability ([4]; first compound 0.01581 µM)
NCI-H2405	0.651	0.954	0.766	0.26	0.241	0.514	0.475	0.396	0.265	0.175	0.786	0.856	0.792	0.357	0.698	0.645	0.724	0.626
NCI-H3122	0.114	0.116	0.132		0.0937	0.581	0.59	0.668	0.576	0.604	0.978	1.05	1.09	0.825	0.851	1.18	0.98	0.845
PC-3 [JPC-3]	0.743	0.708	0.903	0.485	0.509	0.764	0.762	0.814	0.467	0.421	0.734	0.829	0.9	0.836	0.802	0.707	0.874	0.823
PC-14	0.153	0.171	0.139	0.123	0.126	0.669	0.835	0.703	0.319	0.381	0.22	0.363	0.362	0.45	0.708	1.04	0.917	0.604
